Assay results as given in ChEMBL document CHEMBL3352315, “Biotransformation of huperzine A by a fungal endophyte of Huperzia serrata furnished sesquiterpenoid-alkaloid hybrids” (J Nat Prod, 2014).

biological target: Acetylcholinesterase (Homo sapiens, UniProt P22303); assay: Inhibition of acetylcholinesterase (unknown origin) assessed as inhibition of acetylcholine hydrolysis after 30 mins by Ellmann's method
Sequence (P22303 whole entry): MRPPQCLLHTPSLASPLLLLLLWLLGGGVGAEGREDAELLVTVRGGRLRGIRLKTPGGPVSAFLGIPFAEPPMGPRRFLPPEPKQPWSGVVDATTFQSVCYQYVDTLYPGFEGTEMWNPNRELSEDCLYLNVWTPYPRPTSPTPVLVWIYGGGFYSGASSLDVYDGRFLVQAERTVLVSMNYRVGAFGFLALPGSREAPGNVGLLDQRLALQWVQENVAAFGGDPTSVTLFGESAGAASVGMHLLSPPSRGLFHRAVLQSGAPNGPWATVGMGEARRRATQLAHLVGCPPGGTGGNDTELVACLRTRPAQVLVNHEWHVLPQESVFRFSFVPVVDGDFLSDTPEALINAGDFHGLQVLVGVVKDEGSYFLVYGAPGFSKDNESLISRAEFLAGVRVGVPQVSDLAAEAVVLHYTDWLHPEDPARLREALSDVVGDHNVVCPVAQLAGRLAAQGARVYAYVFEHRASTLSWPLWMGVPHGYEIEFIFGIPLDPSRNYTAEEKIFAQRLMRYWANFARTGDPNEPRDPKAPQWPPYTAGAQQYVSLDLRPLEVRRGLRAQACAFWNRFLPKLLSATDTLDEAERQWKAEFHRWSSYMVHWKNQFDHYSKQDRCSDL

Structure (SMILES) | IC50
C/C=C1\[C@H]2C=C(C)C[C@]1(N[C@H]1OC(=O)C3=C4CC(C)(C)C[C@H]4[C@@H](C)[C@@H](O)C[C@]31OC)c1ccc(=O)[nH]c1C2 | 990 nM
C/C=C1\[C@H]2C=C(C)C[C@]1(N[C@H]1OC(=O)C3=C4CC(C)(C)C[C@H]4[C@@H](C)[C@@H](O)C[C@]31O)c1ccc(=O)[nH]c1C2 | 2170 nM
C/C=C1\[C@H]2C=C(C)C[C@]1(NC1OCC3=C4CC(C)(C)C[C@H]4[C@@H](C)[C@H](O)CC31O)c1ccc(=O)[nH]c1C2 (stereo not given in full) | 110 nM
C/C=C1\[C@H]2C=C(C)C[C@]1(NC1OCC3=C4CC(C)(C)[C@H](O)[C@H]4[C@@H](C)CCC31O)c1ccc(=O)[nH]c1C2 (stereo not given in full) | 60 nM
C/C=C1/[C@@H]2Cc3[nH]c(=O)ccc3[C@@]1(N)C[C@]1(C)O[C@H]21 | 12100 nM
